In patent US9120805B2, “Substituted pyrrolo[1,2-A]pyrazin-1-ones and pyrazolo[1,5-A]pyrazin-4-ones as inhibitors of tankyrase and poly(ADP-ribose)polymerase activity” (Merck Patent GmbH, priority 2012, dated 2015):
pEC50, pIC50: −log10 of the molar value.

Assays:
[1] = biological target: T1, GST-tagged Tankyrase-1 (1023-1327 aa) (Homo sapiens, UniProt O95271); assay: Tankyrase 1 autoparsylation assay (HTRF enzyme assay); assay type: biochemical
T1 construct: GST-tagged Tankyrase-1 (1023-1327 aa)
T1 sequence (O95271 1023-1327): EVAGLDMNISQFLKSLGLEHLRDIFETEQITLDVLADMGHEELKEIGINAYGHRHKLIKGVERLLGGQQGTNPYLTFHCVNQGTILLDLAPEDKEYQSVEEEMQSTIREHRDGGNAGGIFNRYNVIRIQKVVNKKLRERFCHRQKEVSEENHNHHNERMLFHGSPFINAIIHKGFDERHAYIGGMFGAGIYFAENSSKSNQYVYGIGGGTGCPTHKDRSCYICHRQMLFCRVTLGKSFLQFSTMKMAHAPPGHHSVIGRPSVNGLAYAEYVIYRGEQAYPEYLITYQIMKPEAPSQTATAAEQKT
How it was run: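 ~250 nM GST-tagged enzyme with 5 μM biotin-NAD in HEPES/Mg/DTT buffer pH 7.7, 10 compound concentrations, 90 min at 30 °C; EDTA stop. Eu-anti-GST/streptavidin-Xlent HTRF read (665/615 ratio) after 1 h RT. IC50 relative to inhibitor-free reaction and 5 μM XAV-939 as zero.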

[2] = biological target: T2, GST-tagged Tnks-2 (873-1166 aa) (Homo sapiens, UniProt Q9H2K2); assay: TNKS2 activity ELISA (autoparsylation assay); assay type: biochemical
T2 construct: GST-tagged Tnks-2 (873-1166 aa, prepared in-house); made in house
T2 sequence (Q9H2K2 873-1166): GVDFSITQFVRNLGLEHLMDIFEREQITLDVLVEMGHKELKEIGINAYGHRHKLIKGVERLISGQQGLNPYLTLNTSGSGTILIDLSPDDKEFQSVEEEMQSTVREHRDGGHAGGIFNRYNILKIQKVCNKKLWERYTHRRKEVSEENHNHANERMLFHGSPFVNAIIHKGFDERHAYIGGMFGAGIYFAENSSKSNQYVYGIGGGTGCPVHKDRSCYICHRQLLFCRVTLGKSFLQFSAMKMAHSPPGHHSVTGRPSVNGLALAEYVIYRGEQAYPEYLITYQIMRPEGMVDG
Procedure: Description of the TNKS1 and TNKS2 ELISA Assay
Biochemical Activity Testing of TNKS 1 and 2: Activity ELISA (Autoparsylation Assay)
For analysis of autoparsylation activity of TNKS 1 and 2 an activity ELISA is performed: In the first step GST tagged TNKS is captured on a Glutathione coated plate. Then the activity assay with biotinylated NAD is performed in the absence/presence of the compounds. During the enzymatic reaction GST tagged TNKS transfers biotinylated ADP-ribose to itself from biotinylated NAD as co-substrate. For the detection streptavidin-HRP conjugate is added that binds to the biotinylated TNKS and is thereby captured to the plates. The amount of biotinylated resp. autoparsylated TNKS is detected with a luminescence substrate for HRP. The level of the luminescence signal correlates directly with the amount of autoparsylated TNKS and therefore with activity of TNKS.
The activity ELISA is performed in 384 well Glutathione coated microtiter plates (Express capture Glutathione coated plate, Biocat, Heidelberg, Germany). The plates are pre-equilibrated with PBS. Then the plates are incubated with 50 μl 20 ng/well GST-tagged Tnks-1 (1023-1327 aa, prepared in-house), respectively GST-tagged Tnks-2 (873-1166 aa, prepared in-house) in assay buffer (50 mM HEPES, 4 mM Mg-chloride, 0.05% Pluronic F-68, 2 mM DTT, pH 7.7) overnight at 4° C. The plates are washed 3 times with PBS-Tween-20. The wells are blocked by incubation at room temperature for 20 minutes with 50 μl blocking buffer (PBS, 0.05% Tween-20, 0.5% BSA). Afterwards the plates are washed 3 times with PBS-Tween-20. The enzymatic reaction is performed in 50 μl reaction solution (50 mM HEPES, 4 mM Mg-chloride, 0.05% Pluronic F-68, 1.4 mM DTT, 0.5% DMSO, pH 7.7) with 10 μM bio-NAD (Biolog, Life science Inst., Bremen, Germany) as co-substrate in the absence or presence of the test compound (10 dilution concentrations) for 1 hour at 30° C. The reaction is stopped by 3 times washing with PBS-Tween-20. For the detection 50 μl of 20 ng/μl Streptavidin, HRP conjugate (MoBiTec, Göttingen, Germany) in PBS/0.05% Tween-20/0.01% BSA are added and the plates are incubated for 30 minutes at room temperature. After three times washing with PBS-Tween-20 50 μl of SuperSignal ELISA Femto Maximum sensitivity substrate solution (ThermoFisherScientific (Pierce), Bonn, Germany) are added. Following a 1 minute incubation at room temperature luminescence signals are measured with an Envision multimode reader (Perkin Elmer LAS Germany GmbH) at 700 nm. The full value used is the inhibitor-free reaction. The pharmacological zero value used is XAV-939 (Tocris) in a final concentration of 5 μM. The inhibitory values (1050) are determined using either the program Symyx Assay Explorer® or Condosseo® from GeneData.

tankyrase 1/2 = assay: Cellular inhibition of Tankyrase: increase of Axin2 level in DLD1 cells (Luminex); assay type: cell-based; settings: 24 hours, read-out: EC50 tankyrase 1/2 (cell assay)
How it was run: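 DLD1 colon carcinoma cells treated 24 h with seven-step serial dilutions in triplicate (0.3% DMSO final). Axin2 in cleared lysates captured on anti-Axin2 beads, detected with polyclonal anti-Axin2 plus PE secondary, and quantified by Luminex. EC50 from data normalized to solvent control; IWR-2 (3E-06 M) marks maximal Axin2 increase.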

Row | Compound | pIC50 [1] | pIC50 [2] | pEC50 (tankyrase 1/2)
1 | Cc1cc2c(=O)[nH]c(-c3ccc(C(C)(C)O)cc3)cn2c1 [Compound A56, 3-[4-(1-hydroxy-1-methyl-ethyl)-phenyl]-7-methyl-2H-pyrrolo[1,2-a]pyrazin-1-one] | > 6.52 | > 6.52 | > 6.52
2 | Cc1ccc(-c2cn3cccc3c(=O)[nH]2)cc1 [Compound A12, 3-p-tolyl-2H-pyrrolo[1,2-a]pyrazin-1-one] | > 6.52 | > 6.52 | 5.52 to 6.52
3 | CC(C)(C)c1ccc(-c2cn3cccc3c(=O)[nH]2)cc1 [Compound A11, 3-(4-tert-butyl-phenyl)-2H-pyrrolo[1,2-a]pyrazin-1-one] | > 6.52 | > 6.52 | > 6.52
4 | CC(C)(O)c1ccc(-c2cn3cc(F)cc3c(=O)[nH]2)cc1 [Compound A59, 7-fluoro-3-[4-(1-hydroxy-1-methyl-ethyl)-phenyl]-2H-pyrrolo[1,2-a]pyrazin-1-one] | > 6.52 | > 6.52 | > 6.52
5 | Cc1cc2c(=O)[nH]c(-c3ccc(C(C)(C)O)cc3)cn2n1 [Compound A46, 6-[4-(1-hydroxy-1-methyl-ethyl)phenyl]-2-methyl-5H-pyrazolo[1,5-a]pyrazin-4-one] | > 6.52 | > 6.52 | 5.52 to 6.52
6 | CN1CCC(c2ccc(-c3cn4cccc4c(=O)[nH]3)cc2)CC1 [Compound A79, 3-[4-(1-methyl-piperidin-4-yl)-phenyl]-2H-pyrrolo[1,2-a]pyrazin-1-one] | > 6.52 | > 6.52 | 4.30 to 5.52
7 | CC(C)(N)c1ccc(-c2cn3cc(F)cc3c(=O)[nH]2)cc1 [Compound A72, 3-[4-(1-amino-1-methyl-ethyl)-phenyl]-7-fluoro-2H-pyrrolo[1,2-a]pyrazin-1-one] | > 6.52 | > 6.52 | 4.30 to 5.52
8 | CC(C)(O)c1ccc(-c2cn3cccc3c(=O)[nH]2)cc1 [Compound A29, 3-[4-(1-hydroxy-1-methyl-ethyl)-phenyl]-2H-pyrrolo[1,2-a]pyrazin-1-one] | > 6.52 | > 6.52 | > 6.52
9 | CC(C)(F)c1ccc(-c2cn3cc(F)cc3c(=O)[nH]2)cc1 [Compound A63, 7-fluoro-3-[4-(1-fluoro-1-methyl-ethyl)-phenyl]-2H-pyrrolo[1,2-a]pyrazin-1-one] | > 6.52 | > 6.52 | > 6.52
10 | CC1(c2ccc(-c3cn4cc(F)cc4c(=O)[nH]3)cc2)CCCO1 (stereo not drawn) [Compound A73, 7-fluoro-3-[4-(2-methyl-tetrahydro-furan-2-yl)-phenyl]-2H-pyrrolo[1,2-a]pyrazin-1-one] | > 6.52 | > 6.52 | > 6.52
11 | COCCOC(C)(C)c1ccc(-c2cn3cc(F)cc3c(=O)[nH]2)cc1 [Compound A71, 7-fluoro-3-{4-[1-(2-methoxy-ethoxy)-1-methyl-ethyl]-phenyl}-2H-pyrrolo[1,2-a]pyrazin-1-one] | > 6.52 | > 6.52 | 5.52 to 6.52
12 | O=c1[nH]c(-c2ccc(C3CCNCC3)cc2)cn2cccc12 [Compound A75, 3-(4-piperidin-4-yl-phenyl)-2H-pyrrolo[1,2-a]pyrazin-1-one] | > 6.52 | > 6.52 | 5.52 to 6.52
13 | O=c1[nH]c(-c2ccc(C3(O)CCC3)cc2)cn2cccc12 [Compound A111] | > 6.52 | > 6.52 | > 6.52
14 | Cn1cc(-c2ccc(-c3cn4cccc4c(=O)[nH]3)cc2)cn1 [Compound A25, 3-[4-(1-methyl-1H-pyrazol-4-yl)-phenyl]-2H-pyrrolo[1,2-a]pyrazin-1-one] | > 6.52 | > 6.52 | > 6.52
15 | CN1CCC(c2ccc(-c3cn4cccc4c(=O)[nH]3)cc2)C1 (stereo not drawn) [Compound A80, 3-[4-(1-methyl-pyrrolidin-3-yl)-phenyl]-2H-pyrrolo[1,2-a]pyrazin-1-one] | 5.52 to 6.52 | > 6.52 | 4.30 to 5.52
16 | CCC(O)(CC)c1ccc(-c2cn3cc(F)cc3c(=O)[nH]2)cc1 [Compound A61, 3-[4-(1-ethyl-1-hydroxy-propyl)-phenyl]-7-fluoro-2H-pyrrolo[1,2-a]pyrazin-1-one] | > 6.52 | > 6.52 | > 6.52
17 | CC(C)(O)c1ccc(-c2cn3cc(Cl)cc3c(=O)[nH]2)cc1 [Compound A60, 7-chloro-3-[4-(1-hydroxy-1-methyl-ethyl)-phenyl]-2H-pyrrolo[1,2-a]pyrazin-1-one] | > 6.52 | > 6.52 | > 6.52
18 | CC(C)(C)c1ccc(-c2cn3cc(F)cc3c(=O)[nH]2)cc1 [Compound A35, 3-(4-tert-butyl-phenyl)-7-fluoro-2H-pyrrolo[1,2-a]pyrazin-1-one] | > 6.52 | > 6.52 | > 6.52
19 | CC(C)(OCCO)c1ccc(-c2cn3cc(F)cc3c(=O)[nH]2)cc1 [Compound A70, 7-fluoro-3-{4-[1-(2-hydroxy-ethoxy)-1-methyl-ethyl]-phenyl}-2H-pyrrolo[1,2-a]pyrazin-1-one] | > 6.52 | > 6.52 | > 6.52
20 | O=c1[nH]c(-c2ccc(C3CCNC3)cc2)cn2cccc12 (stereo not drawn) [Compound A76, 3-(4-Pyrrolidin-3-yl-phenyl)-2H-pyrrolo[1,2-a]pyrazin-1-one] | > 6.52 | > 6.52 | 5.52 to 6.52
